Values of other authors as cited in publication PMC9516332 (Frontiers in Oncology, 2022).
Like-named read-outs stand apart in the source and are kept apart here.

Assays:
[1] = molecular target: T1, panel of 255 wild-type kinases (Homo sapiens, UniProt Q8TDC3); settings: BRSK1 kinase assay, 1 µmol/L single concentration, cited from earlier work
T1 sequence (Q8TDC3 1-778): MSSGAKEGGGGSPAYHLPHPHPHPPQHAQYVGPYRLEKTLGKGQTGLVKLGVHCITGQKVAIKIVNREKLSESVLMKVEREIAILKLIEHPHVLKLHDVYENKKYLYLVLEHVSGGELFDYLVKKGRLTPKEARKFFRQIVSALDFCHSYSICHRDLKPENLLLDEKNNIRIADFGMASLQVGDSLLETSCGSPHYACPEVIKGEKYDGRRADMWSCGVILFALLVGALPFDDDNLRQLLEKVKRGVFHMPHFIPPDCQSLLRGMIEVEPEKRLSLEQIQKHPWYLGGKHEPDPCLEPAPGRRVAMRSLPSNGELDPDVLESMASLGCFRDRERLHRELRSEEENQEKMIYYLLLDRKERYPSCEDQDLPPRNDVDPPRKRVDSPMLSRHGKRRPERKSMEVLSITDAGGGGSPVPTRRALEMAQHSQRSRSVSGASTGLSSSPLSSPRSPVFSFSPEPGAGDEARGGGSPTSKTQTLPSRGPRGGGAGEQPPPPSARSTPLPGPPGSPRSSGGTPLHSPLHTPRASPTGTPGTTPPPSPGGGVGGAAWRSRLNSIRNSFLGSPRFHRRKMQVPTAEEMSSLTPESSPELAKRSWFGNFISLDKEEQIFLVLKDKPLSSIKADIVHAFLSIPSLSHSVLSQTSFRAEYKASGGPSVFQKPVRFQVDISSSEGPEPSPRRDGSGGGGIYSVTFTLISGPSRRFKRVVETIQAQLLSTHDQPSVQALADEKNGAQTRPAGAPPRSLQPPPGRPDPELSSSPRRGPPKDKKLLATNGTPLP

[2] = molecular target: panel of 255 wild-type kinases (Homo sapiens, UniProt P11362); settings: kinase FGFR1, 1 µmol/L single concentration, cited from earlier work
[3] = molecular target: panel of 255 wild-type kinases (Homo sapiens, UniProt P29317); settings: kinase EPHA2, 1 µmol/L single concentration, cited from earlier work
[4] = molecular target: panel of 255 wild-type kinases (Homo sapiens, UniProt Q13882); settings: BRK kinase assay, 1 µmol/L single concentration, cited from earlier work
[5] = molecular target: panel of 255 wild-type kinases (Homo sapiens, UniProt Q9BYP7); settings: kinase WNK3, 1 µmol/L single concentration, cited from earlier work
[6] = molecular target: panel of 255 wild-type kinases (Homo sapiens, UniProt P28482); settings: kinase Erk2, 1 µmol/L single concentration, cited from earlier work
[7] = molecular target: T2, panel of 255 wild-type kinases (Homo sapiens, UniProt P42680); settings: kinase TEC, 1 µmol/L single concentration, cited from earlier work
T2 sequence (P42680 1-631): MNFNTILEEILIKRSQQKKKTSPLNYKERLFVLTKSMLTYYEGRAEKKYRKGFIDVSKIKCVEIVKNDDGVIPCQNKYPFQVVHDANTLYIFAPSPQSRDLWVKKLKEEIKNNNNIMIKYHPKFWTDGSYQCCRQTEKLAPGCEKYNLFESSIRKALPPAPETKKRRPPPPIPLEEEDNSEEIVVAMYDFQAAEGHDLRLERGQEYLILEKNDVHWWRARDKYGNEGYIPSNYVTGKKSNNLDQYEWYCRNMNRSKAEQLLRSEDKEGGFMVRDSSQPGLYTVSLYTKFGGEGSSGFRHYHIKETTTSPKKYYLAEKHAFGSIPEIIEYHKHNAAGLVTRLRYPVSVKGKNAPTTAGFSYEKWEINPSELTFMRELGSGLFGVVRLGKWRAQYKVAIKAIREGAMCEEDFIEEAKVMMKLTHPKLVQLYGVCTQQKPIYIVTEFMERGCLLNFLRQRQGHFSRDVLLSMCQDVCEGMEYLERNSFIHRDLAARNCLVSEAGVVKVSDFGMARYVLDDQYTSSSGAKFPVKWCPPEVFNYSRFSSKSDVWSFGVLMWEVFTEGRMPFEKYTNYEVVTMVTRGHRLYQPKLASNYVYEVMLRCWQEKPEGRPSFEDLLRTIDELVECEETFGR

[8] = molecular target: T3, panel of 255 wild-type kinases (Homo sapiens, UniProt Q14164); settings: kinase IKKε, 1 µmol/L single concentration, cited from earlier work
T3 sequence (Q14164 1-716): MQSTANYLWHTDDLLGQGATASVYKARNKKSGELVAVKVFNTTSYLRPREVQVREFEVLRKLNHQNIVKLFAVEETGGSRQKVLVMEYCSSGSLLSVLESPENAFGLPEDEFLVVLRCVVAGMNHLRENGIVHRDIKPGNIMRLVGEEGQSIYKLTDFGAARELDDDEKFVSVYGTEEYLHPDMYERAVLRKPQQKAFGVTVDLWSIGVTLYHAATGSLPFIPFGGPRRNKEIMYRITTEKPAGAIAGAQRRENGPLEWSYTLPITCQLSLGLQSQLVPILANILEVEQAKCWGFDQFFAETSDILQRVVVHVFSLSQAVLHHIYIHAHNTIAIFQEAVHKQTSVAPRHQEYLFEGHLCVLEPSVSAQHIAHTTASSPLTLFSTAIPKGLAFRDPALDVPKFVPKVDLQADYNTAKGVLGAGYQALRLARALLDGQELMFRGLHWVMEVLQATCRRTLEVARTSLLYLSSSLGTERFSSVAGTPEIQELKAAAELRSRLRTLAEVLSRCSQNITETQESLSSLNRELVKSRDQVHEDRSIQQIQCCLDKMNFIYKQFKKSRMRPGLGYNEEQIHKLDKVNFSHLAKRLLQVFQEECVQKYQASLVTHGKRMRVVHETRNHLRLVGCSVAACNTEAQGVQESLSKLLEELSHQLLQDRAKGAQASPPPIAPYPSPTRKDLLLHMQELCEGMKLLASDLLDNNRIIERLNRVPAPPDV

[9] = ref DOI: 10.1371/journal.pone.0092146
[10] = ref DOI: 10.1158/1535-7163.MCT-18-0877

Compound	%-inhibition BRSK1 [1, 9]	%-inhibition at 1 µmol/L, FGFR1 [2, 9]	%-inhibition at 1 µmol/L, EPHA2 [3, 9]	%-inhibition BRK [4, 9]	%-inhibition at 1 µmol/L, WNK3 [5, 9]	%-inhibition at 1 µmol/L, Erk2 [6, 9]	%-inhibition at 1 µmol/L, TEC [7, 9]	%-inhibition at 1 µmol/L, IKKε [8, 9]	%-inhibition BRSK1 [1, 10]	%-inhibition at 1 µmol/L, FGFR1 [2, 10]	%-inhibition at 1 µmol/L, EPHA2 [3, 10]	%-inhibition BRK [4, 10]	%-inhibition at 1 µmol/L, WNK3 [5, 10]	%-inhibition at 1 µmol/L, Erk2 [6, 10]	%-inhibition at 1 µmol/L, TEC [7, 10]	%-inhibition at 1 µmol/L, IKKε [8, 10]
CCCS(=O)(=O)Nc1ccc(F)c(C(=O)c2c[nH]c3ncc(-c4ccc(Cl)cc4)cc23)c1F [vemurafenib]	-8%	21%	0.715%	98%	53%	-4.58%	-0.191%	-9%	–	–	–	–	–	–	–	–
CC(=O)Nc1cccc(-n2c(=O)n(C3CC3)c(=O)c3c(Nc4ccc(I)cc4F)n(C)c(=O)c(C)c32)c1 [trametinib]	-6%	-1.45%	-8.53%	-5.53%	1%	-5%	-7.53%	-3.63%	–	–	–	–	–	–	–	–
CCc1cc2c(cc1N1CCC(N3CCOCC3)CC1)C(C)(C)c1[nH]c3cc(C#N)ccc3c1C2=O [alectinib]	–	–	–	–	–	–	–	–	8.48%	5.37%	1.88%	9%	0.437%	1.1%	1.06%	1.59%
CC(C)(C)c1nc(-c2cccc(NS(=O)(=O)c3c(F)cccc3F)c2F)c(-c2ccnc(N)n2)s1 [dabrafenib]	37%	10%	7%	98%	1.34%	-8%	38%	15%	–	–	–	–	–	–	–	–
CC#CC(=O)N1CCC[C@H]1c1nc(-c2ccc(C(=O)Nc3ccccn3)cc2)c2c(N)nccn12 [acalabrutinib]	–	–	–	–	–	–	–	–	-1.79%	-2.28%	-3.6%	51%	-0.259%	-2%	96%	1.46%
